From US8822413B2, “Bifunctional hormone having alpha-MSH activity and natriuretic peptide activity and uses thereof” (Theratechnologies Inc., priority 2007, dated 2014)
Bridge positions count the residues as written; N and C are the ends. Square brackets hold non-standard residues; d marks the D form. Peptide text beside a SMILES is read from it.

Tested on: CD11b/c, KIM-1 and IL-1β
Assay: Western blot of inflammatory and tubular injury markers in kidneys after renal ischemia
Assay type: in vivo, rat
Details: 15 μg/kg/h for 24 h, renal clamping 30 min, FIG. 6
Experimental: Bifunctional hormone #33 was infused at an infusion rate of 15 μg/kg/h for 24 h using Alzet™ minipumps. The proteins were identified with specific antibodies. (A) Western blot. (B) Histograms showing the relative abundance of the markers.
Renal ischemia elicits increased expression of inflammatory markers such as IL-1, IL-18, Tumor Necrosis Factor alpha (TNF-α) and CD11b (neutrophil marker; evidence of neutrophil infiltration of the tissue) as well as tubular epithelial markers such as KIM-1, NGAL and NAG. There is considerable interest in these markers since these markers are expressed earlier than the observed rise in serum creatinine levels. Therefore, diagnosis of acute kidney injury based on the markers allows for earlier treatment of the patients which may produce better outcomes in terms of dialysis need and mortality. The effect of the bifunctional hormone #33 on the expression of inflammatory and tubular injury markers was assessed using the animal model described in Example 5.
Preparation of dosing solutions. Peptide #33 was infused for 24 h at an infusion rate of 15 μg/Kg/h using Alzet™ minipumps.
Western blotting. Fresh kidneys were rapidly dissected and homogenized with a tissue homogenizer in ice cold lysis buffer: 20 mM Tris, 135 mM NaCl, 1% NP-40™, 0.1% SDS, 10% glycerol containing Complete-Mini Protease Inhibitor Cocktail™ (Roche). Following a 15-min incubation on ice, samples were centrifuged at 13,000 rpm for 5 min at 4° C. and the supernatants containing solubilized protein extracts were collected. Protein samples (40 ug protein) were resolved on 10% SDS polyacrylamide gel electrophoresis and transferred to PVDF membranes (Amersham, Pharmacia). Non-specific binding was eliminated by incubating membranes for 1 h at room temperature in a solution of 5% non-fat milk in TBST (10 mM Tris, 150 mM NaCl, 0.2% Tween-20). […]

CC[C@H](C)[C@@H]1NC(=O)[C@H](CCCNC(=N)N)NC(=O)[C@H](CC(=O)O)NC(=O)[C@H](CCSC)NC(=O)[C@H](CCCNC(=N)N)NC(=O)CNC(=O)CNC(=O)[C@H](Cc2ccccc2)NC(=O)[C@@H](NC(=O)[C@H](CCSC)NC(=O)[C@@H]2CCCN2C(=O)[C@H](CCCCN)NC(=O)CNC(=O)[C@H](Cc2c[nH]c3ccccc23)NC(=O)[C@H](CCCNC(=N)N)NC(=O)[C@@H](Cc2ccccc2)NC(=O)[C@H](Cc2c[nH]cn2)NC(C)=O)CSSC[C@@H](C(=O)N[C@@H](CC(N)=O)C(=O)N[C@@H](CO)C(=O)N[C@@H](Cc2ccccc2)C(=O)N[C@@H](CCCNC(=N)N)C(=O)N[C@@H](Cc2ccc(O)cc2)C(N)=O)NC(=O)CNC(=O)[C@H](CC(C)C)NC(=O)CNC(=O)[C@H](CO)NC(=O)[C@H](CCC(N)=O)NC(=O)[C@H](C)NC(=O)CNC1=O [SEQ ID NO: 33, Ac-H-f-R-W-G-K-P-M-[C-F-G-G-R-M-D-R-I-G-A-Q-S-G-L-G-C]-N-S-F-R-Y-NH2] (Ac-H[dF]RWGKPMCFGGRMDRIGAQSGLGCNSFRY-NH2; disulfide 9-25)
reduced the expression: expression of CD11b/c (neutrophil marker) in kidney | expression of IL-1β (inflammatory cytokine) in kidney | expression of KIM-1 (tubular injury marker) in kidney
